Data on nine compounds can be found in PubChem BioAssay (NCI).

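Results reflect a 48-hour exposure of cells in 96-well plates to compound at five concentrations. TGI denotes the concentration required for complete inhibition of growth.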

Among the test systems are OVCAR-3 ovarian; HCT-116 colon; SK-MEL-28 melanoma; RPMI-8226 leukemia; MOLT-4 leukemia; RXF 393 renal; NCI-H226 lung; SN12C renal; SNB-19 CNS; OVCAR-5 ovarian; HOP-92 NSCLC; NCI-H522 lung; NCI-H23 lung; SK-MEL-5 melanoma; U251 CNS.
Experiment in all cases: growth of human tumour cells (NCI), 48 h

In the case of `COC(=O)C12C3C4C5(C(=O)OC)C(C1C35C(=O)N(C(C)C)C(C)C)C42C(=O)N(C(C)C)C(C)C` (stereo unspecified), the TGI with OVCAR-3 ovarian was > 50 µM; in the test on HCT-116 colon, 33.6 µM; in the test with SK-MEL-28 melanoma it was > 50 µM; in the test on RPMI-8226 leukemia, > 50 µM; with MOLT-4 leukemia, > 50 µM; in the test with RXF 393 renal, > 50 µM. Moreover, the TGI with NCI-H226 lung, with SN12C renal, in the test with SNB-19 CNS, in the test on OVCAR-5 ovarian, with HOP-92 NSCLC and with NCI-H522 lung was > 50 µM throughout. Further, the TGI in the test on NCI-H23 lung, in the test with SK-MEL-5 melanoma and in the test on U251 CNS was > 50 µM throughout.
With `Cc1ccc2c(c1CCCC(C)(C)O)C(=O)C(=O)C(C(C)C)=C2O`, the TGI with OVCAR-3 ovarian, in the test on HCT-116 colon, with SK-MEL-28 melanoma, with RPMI-8226 leukemia, with MOLT-4 leukemia and in the test with RXF 393 renal was > 100 µM throughout. Further, the TGI with NCI-H226 lung, with SN12C renal, in the test with SNB-19 CNS, with HOP-92 NSCLC, in the test on NCI-H522 lung and in the test with NCI-H23 lung was > 100 µM in each case. In addition, the TGI in the test with SK-MEL-5 melanoma and in the test on U251 CNS was > 100 µM each time.
As to `Cc1ccc(C2CC(c3ccco3)=NN2c2ccccc2)o1` (stereo unspecified), the TGI with OVCAR-3 ovarian, in the test with HCT-116 colon, in the test with SK-MEL-28 melanoma, in the test on RPMI-8226 leukemia, with MOLT-4 leukemia and with RXF 393 renal was > 100 µM each time. The TGI in the test on NCI-H226 lung, in the test on SN12C renal, with SNB-19 CNS, in the test with OVCAR-5 ovarian, in the test with NCI-H522 lung and in the test on NCI-H23 lung was > 100 µM in each case. Further, the TGI in the test on SK-MEL-5 melanoma and with U251 CNS was > 100 µM each time.
On to `Nc1ccc(C(=O)NN2C(=O)C(Cl)C2c2ccccc2Cl)cc1` (stereo unspecified), for which the TGI with OVCAR-3 ovarian was 26.9 µM; in the test on HCT-116 colon, 16.3 µM; in the test on SK-MEL-28 melanoma it was 28.3 µM; with RPMI-8226 leukemia, > 100 µM; in the test on MOLT-4 leukemia, 8.1 µM; in the test on RXF 393 renal it was 20.1 µM. Besides, the TGI with NCI-H226 lung came to 31.5 µM; with SNB-19 CNS, 30.6 µM; with OVCAR-5 ovarian, 28.4 µM; with HOP-92 NSCLC, 14.9 µM; in the test on NCI-H522 lung it was 3.13 µM; in the test with NCI-H23 lung, 24.9 µM. Besides, the TGI with SK-MEL-5 melanoma came out at 29.5 µM; in the test with U251 CNS, 24.7 µM.
Consider `Cc1cn2c(=O)c3ccccc3nc2s1`, for which the TGI in the test on OVCAR-3 ovarian, in the test on HCT-116 colon, in the test on SK-MEL-28 melanoma, with RPMI-8226 leukemia, with MOLT-4 leukemia and with RXF 393 renal was > 100 µM each time. Also, the TGI in the test on NCI-H226 lung, in the test with SN12C renal, in the test on SNB-19 CNS, in the test with OVCAR-5 ovarian, in the test on HOP-92 NSCLC and in the test with NCI-H522 lung was > 100 µM throughout. Besides, the TGI in the test with NCI-H23 lung, in the test on SK-MEL-5 melanoma and in the test on U251 CNS was > 100 µM throughout.
For the compound `C/C(=C1/CCCC2(N=NCC2c2ccccc2)C1=O)c1ccccc1` (stereo unspecified), the TGI in the test on OVCAR-3 ovarian was 40.3 µM; with HCT-116 colon it was 53.3 µM; in the test with SK-MEL-28 melanoma it was 73.2 µM; with RPMI-8226 leukemia, > 100 µM; in the test with MOLT-4 leukemia it was 48.1 µM; with RXF 393 renal, 79.5 µM. In addition, the TGI with NCI-H226 lung was 41.3 µM; in the test on SN12C renal, > 100 µM; with SNB-19 CNS, > 100 µM; in the test on OVCAR-5 ovarian, > 100 µM; in the test with HOP-92 NSCLC, > 100 µM; with NCI-H522 lung it was 59.6 µM. For the same compound, the TGI with NCI-H23 lung is 67.5 µM; in the test with SK-MEL-5 melanoma, 25.3 µM; in the test on U251 CNS, 72 µM.
On to `O=[N+]([O-])c1ccc(-n2nnc(C3=NCCCN3)c2-c2ccc(Cl)cc2)cc1`, for which the TGI in the test with OVCAR-3 ovarian, in the test on HCT-116 colon, with SK-MEL-28 melanoma, in the test on RPMI-8226 leukemia, with MOLT-4 leukemia and in the test with RXF 393 renal was > 100 µM in each case. Moreover, the TGI in the test on NCI-H226 lung, in the test with SN12C renal, in the test on SNB-19 CNS, in the test with OVCAR-5 ovarian, with HOP-92 NSCLC and in the test with NCI-H522 lung was > 100 µM in each case. Besides, the TGI with NCI-H23 lung, with SK-MEL-5 melanoma and with U251 CNS was > 100 µM throughout.
For the compound `N#C/C(=C\c1ccc(O)c(O)c1)C(N)=O`, the TGI in the test with OVCAR-3 ovarian is 86.1 µM; in the test with HCT-116 colon it was 67.9 µM; in the test with SK-MEL-28 melanoma, > 100 µM; in the test with RPMI-8226 leukemia, > 100 µM; in the test on MOLT-4 leukemia, 38.6 µM; in the test with RXF 393 renal it was 51.6 µM. Moreover, the TGI was > 100 µM with NCI-H226 lung; > 100 µM in the test with SN12C renal; > 100 µM in the test on SNB-19 CNS; > 100 µM in the test on OVCAR-5 ovarian; > 100 µM in the test on HOP-92 NSCLC; 53.3 µM in the test on NCI-H522 lung. The TGI in the test with NCI-H23 lung is 93.8 µM; in the test with U251 CNS it was > 100 µM.
With `CCOC(=O)C(N=Nc1ccc(S(N)(=O)=O)cc1)C(C)=O` (stereo unspecified), the TGI in the test on OVCAR-3 ovarian, in the test with HCT-116 colon, in the test with SK-MEL-28 melanoma, in the test with RPMI-8226 leukemia, with MOLT-4 leukemia and in the test with RXF 393 renal was > 100 µM in each case. Moreover, the TGI in the test with NCI-H226 lung, in the test on SN12C renal, in the test with SNB-19 CNS, in the test on OVCAR-5 ovarian, in the test on HOP-92 NSCLC and in the test with NCI-H522 lung was > 100 µM throughout. The TGI in the test with NCI-H23 lung, in the test with SK-MEL-5 melanoma and in the test with U251 CNS was > 100 µM each time.
